What was measured:
CASOB (Sicklepod) = assay: Postemergence herbicidal evaluation; type: in vivo, Cassia obtusifolia; details: postemergence
Outline: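 Compound is applied as a foliar spray to seedlings about two weeks old, formulated in equal parts acetone and water with 0.5% TWEEN 20 and delivered at 40 psi to give about 0.0156–0.500 kg per hectare. Injury is rated visually 0–9 after four to five weeks.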

[1] = test system: GLXMAW (Soybean, Williams); assay: Preemergence herbicidal evaluation; type: in vivo, Glycine max, (L.) Merr. cv Williams; details: rated 4-5 weeks after treatment
Outline: (§1)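 Rating at 4–5 wk post-spray on a 0–9 visual scale vs control. Application: aqueous acetone, ~0.0156–0.500 kg/ha, to soil surface after seeding, preemergence.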

ORYSAT (Rice, Tebonnet) = assay: Preemergence herbicidal evaluation; type: in vivo, Oryza sativa, (L.) Tebonnet; details: rated 4-5 weeks after treatment
Outline: as §1

[2] = test system: TRZAWR (Wheat, Winter, cv Riband); assay: Preemergence herbicidal evaluation; type: in vivo, Triticum aestivum; details: rated 4-5 weeks after treatment
Outline: as §1

[3] = test system: SAGPY (Arrowhead (Pygmaea)); assay: Preemergence weed control under flooded paddy conditions; type: in vivo, Sagittaria pygmaea; details: rated 3-4 weeks after treatment
Outline: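 Seeds or propagules sown in silt loam kept flooded 1.5-3 cm; compounds in 50/50 acetone/water pipetted into flood water at about 0.0313 to 0.500 kg/ha. Greenhouse; visual 0-9 rating versus untreated control 3-4 weeks after treatment.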

[4] = rate 0.0625 kg/ha, rating scale 0-9
[5] = rate 0.1250 kg/ha, rating scale 0-9
[6] = rate 0.2500 kg/ha, rating scale 0-9
[7] = rate 0.0156 kg/ha, rating scale 0-9
[8] = rate 0.0313 kg/ha, rating scale 0-9

Row | Structure (SMILES) | herbicidal rating CASOB (CASOB (Sicklepod); rate 0.0156 kg/ha) | herbicidal rating CASOB (CASOB (Sicklepod); rate 0.0313 kg/ha) | herbicidal rating CASOB (CASOB (Sicklepod); rate 0.0625 kg/ha) | herbicidal rating CASOB (CASOB (Sicklepod); rate 0.1250 kg/ha) | herbicidal effect rating, SAGPY ([3]; 0.0313 kg/ha) | herbicidal effect rating, SAGPY ([3]; 0.0625 kg/ha) | herbicidal effect rating, SAGPY ([3]; 0.1250 kg/ha) | herbicidal effect rating, SAGPY ([3]; 0.2500 kg/ha) | Preemergence herbicidal rating GLXMAW [1, 4] | Preemergence herbicidal rating GLXMAW [1, 5] | Preemergence herbicidal rating GLXMAW [1, 6] | Preemergence herbicidal rating ORYSAT (ORYSAT (Rice, Tebonnet); [4]) | Preemergence herbicidal rating ORYSAT (ORYSAT (Rice, Tebonnet); [5]) | Preemergence herbicidal rating ORYSAT (ORYSAT (Rice, Tebonnet); [6]) | Preemergence herbicidal rating TRZAWR [2, 4] | Preemergence herbicidal rating TRZAWR [2, 5] | Preemergence herbicidal rating TRZAWR [2, 6] | also measured
1 | CCOC(=O)CN1C(=O)C(C(=O)OCC)SC1=Nc1cc(-n2c(=O)cc(C(F)(F)F)n(C)c2=O)c(F)cc1Cl (centres unmarked) [Compound 127, 5-Carboxy-2-{{2-chloro-5-[3,6-dihydro-3-methyl-2,6-dioxo-4-(trifluoromethyl)-1(2H)-pyrimidinyl]-4-fluorophenyl}imino}-4-oxo-3-thiazolidineacetic acid, diethyl ester] | 0.0 | 0.0 | 1.0 | 1.0 | 0.0 | 0.0 | 0.0 | 3.0 | – | – | – | – | – | – | – | – | – | Preemergence herbicidal rating GLXMAW ([1]; rate 0.0313 kg/ha): 0.0; Preemergence herbicidal rating GLXMAW ([1]; rate 0.0625 kg/ha): 0.0; Preemergence herbicidal rating GLXMAW ([1]; rate 0.1250 kg/ha): 0.0; Preemergence herbicidal rating GLXMAW ([1]; rate 0.2500 kg/ha): 4.0; Preemergence herbicidal rating GLXMAW ([1]; rate 0.5000 kg/ha): 4.0; Preemergence herbicidal rating ORYSAT (ORYSAT (Rice, Tebonnet); rate 0.0313 kg/ha): 0.0; Preemergence herbicidal rating ORYSAT (ORYSAT (Rice, Tebonnet); rate 0.0625 kg/ha): 0.0; Preemergence herbicidal rating ORYSAT (ORYSAT (Rice, Tebonnet); rate 0.1250 kg/ha): 0.0; Preemergence herbicidal rating ORYSAT (ORYSAT (Rice, Tebonnet); rate 0.2500 kg/ha): 0.0; Preemergence herbicidal rating ORYSAT (ORYSAT (Rice, Tebonnet); rate 0.5000 kg/ha): 3.0; Preemergence herbicidal rating TRZAWR ([2]; rate 0.0313 kg/ha): 0.0; Preemergence herbicidal rating TRZAWR ([2]; rate 0.0625 kg/ha): 0.0; Preemergence herbicidal rating TRZAWR ([2]; rate 0.1250 kg/ha): 0.0; Preemergence herbicidal rating TRZAWR ([2]; rate 0.2500 kg/ha): 0.0; Preemergence herbicidal rating TRZAWR ([2]; rate 0.5000 kg/ha): 7.0
2 | C=CCN1C(=O)C(CC(=O)NO)SC1=Nc1cc(-n2c(=O)cc(C(F)(F)F)n(C)c2=O)c(F)cc1Cl (centres unmarked) [Compound 161, 3-Allyl-2-{{2-chloro-5-[3,6-dihydro-3-methyl-2,6-dioxo-4-(trifluoromethyl)-1(2H)-pyrimidinyl]-4-fluorophenyl}imino}-4-oxo-5-thiazolidineacetohydroxamic acid] | 0.0 | 1.0 | 1.0 | 3.0 | 2.0 | – | 6.0 | 9.0 | – | – | – | – | – | – | – | – | – | Preemergence herbicidal rating GLXMAW ([1]; 0.0156 kg/ha): 0.0; Preemergence herbicidal rating GLXMAW ([1]; 0.0313 kg/ha): 1.0; Preemergence herbicidal rating GLXMAW ([1]; 0.0625 kg/ha): 1.0; Preemergence herbicidal rating GLXMAW ([1]; 0.1250 kg/ha): 7.0; Preemergence herbicidal rating GLXMAW ([1]; 0.2500 kg/ha): 9.0; Preemergence herbicidal rating GLXMAW ([1]; 0.5000 kg/ha): 9.0; Preemergence herbicidal rating ORYSAT (ORYSAT (Rice, Tebonnet); 0.0156 kg/ha): 0.0; Preemergence herbicidal rating ORYSAT (ORYSAT (Rice, Tebonnet); 0.0313 kg/ha): 1.0; Preemergence herbicidal rating ORYSAT (ORYSAT (Rice, Tebonnet); 0.0625 kg/ha): 7.0; Preemergence herbicidal rating ORYSAT (ORYSAT (Rice, Tebonnet); 0.1250 kg/ha): 7.0; Preemergence herbicidal rating ORYSAT (ORYSAT (Rice, Tebonnet); 0.2500 kg/ha): 9.0; Preemergence herbicidal rating ORYSAT (ORYSAT (Rice, Tebonnet); 0.5000 kg/ha): 9.0; Preemergence herbicidal rating TRZAWR ([2]; 0.0156 kg/ha): 0.0; Preemergence herbicidal rating TRZAWR ([2]; 0.0313 kg/ha): 0.0; Preemergence herbicidal rating TRZAWR ([2]; 0.0625 kg/ha): 1.0; Preemergence herbicidal rating TRZAWR ([2]; 0.1250 kg/ha): 4.0; Preemergence herbicidal rating TRZAWR ([2]; 0.2500 kg/ha): 7.0; Preemergence herbicidal rating TRZAWR ([2]; 0.5000 kg/ha): 9.0
3 | COc1cccc(CN2C(=O)CSC2=Nc2cc(-n3c(=O)cc(C(F)(F)F)n(C)c3=O)c(F)cc2Cl)c1 [Compound 137, 3-{4-Chloro-2-fluoro-5-{[3-(m-methoxybenzyl)-4-oxo-2-thiazolidinylidene]amino}phenyl}-1-methyl-6-(trifluoromethyl)-2,4(1H,3H)-pyrimidinedione] | 1.0 | 1.0 | 4.0 | – | 0.0 | 0.0 | 0.0 | 3.0 | 0.0 | 0.0 | 1.0 | 0.0 | 0.0 | 0.0 | 0.0 | 0.0 | 0.0 | –
4 | Cn1c(C(F)(F)F)cc(=O)n(-c2cc(N=C3SCC(=O)N3Cc3ccc(Cl)cc3)c(Cl)cc2F)c1=O [Compound 145, 3-{4-Chloro-5-{[3-(p-chlorobenzyl)-4-oxo-2-thiazolidinylidene]amino}-2-fluorophenyl}-1-methyl-6-(trifluoromethyl)-2,4(1H,3H)-pyrimidinedione] | 1.0 | 2.0 | 5.0 | – | 0.0 | 2.0 | 5.0 | 5.0 | 0.0 | 1.0 | 2.0 | 2.0 | 3.0 | 1.0 | 1.0 | 0.0 | 1.0 | Preemergence herbicidal rating GLXMAW [1, 7]: 0.0; Preemergence herbicidal rating GLXMAW [1, 8]: 0.0; Preemergence herbicidal rating ORYSAT (ORYSAT (Rice, Tebonnet); [7]): 1.0; Preemergence herbicidal rating ORYSAT (ORYSAT (Rice, Tebonnet); [8]): 1.0; Preemergence herbicidal rating TRZAWR [2, 7]: 0.0; Preemergence herbicidal rating TRZAWR [2, 8]: 1.0

From patent US20020137929A1, “1 - (3-heterocyclylphenyl) isothiourea, -isourea, -guanidine and -amidine herbicidal agents” (Intellectual Property Department, BASF Aktiengesellschaft, priority 1998, published 2002)
